# Data as given in US8124111B2, “Immunomodulation by altering sphingosine 1-phosphate lyase (SPL) activity” (Children's Hospital & Research Center at Oakland, priority 2005, dated 2012).
# How the values were obtained:
# [1] = tested on: human SPL luciferase reporter construct; assay: SPL gene expression, human SPL luciferase reporter in HEK293 cells; type: cell-based; conditions: 0.3 μM or 3.0 μM, 24 hours
# Protocol: (§1) (A) SPL gene expression. HEK293 cells were co-transfected with a human SPL luciferase reporter construct and the sea pansy luciferase reporter as a control for transfection efficiency. Twenty-four hours after transfection, cells were treated with 0.3 μM FTY720, 3.0 μM FTY720 or vehicle and incubated for another 24 hours at 37° C. Luciferase activity was then determined as a measure of expression, as described in Experimental Methods. Values shown are luciferase activity normalized to sea pansy luciferase; (B) SPL protein expression. Thymic extracts from control mice (time 0) and mice treated with FTY720 for 24 hours were evaluated for SPL protein expression by immunoblotting. Actin was used as a loading control.
# (§2) SPL expression: To evaluate the effect of FTY720 and FTY720-P on SPL gene expression, HEK293 cells were treated for 30 minutes with 3 μM of either drug, followed by transfection with pSPL-BamHI, a human SPL-luciferase reporter construct. After 48 hours, reporter expression was determined by luciferase activity as described (Oskouian et al., (2005) J Biol Chem 280, 18403-18410)). Western blotting of mouse tissue extracts was performed using a 1:2000 dilution of polyclonal sera raised against the murine SPL C-terminal peptide: (NH2)—V-T-Q-G-N-Q-M-N-G-S—P—K—P—R—(COOH). [SEQ ID NO:11] […]
# SPL protein expression = SPL protein expression in thymic extracts by immunoblotting; type: in vivo; conditions: mice treated for 24 hours
# Protocol: as §1, §2
# S1P = S1P measurements in murine tissue after FTY720 treatment; type: in vivo
# Protocol: Drug treatments and leukocyte/lymphocyte counts: Four-week old FVB or C3H mice were obtained from Charles River Laboratories (Wilmington, Mass.). Animals were maintained in a pathogen-free facility in microisolator cages. Mice were anaesthetized with isoflurane inhalation, and a single dose of FTY720 (at 1 or 3 mg/kg) or GT11 (at 1, 10 or 100 mg/kg) in sterile water was injected intraperitoneally at time zero. Blood counts were determined by Coulter counter (Coulter Instruments, Hialeah, Fla.) and by manual differential counting. Mice were euthanized by CO2 inhalation at various time points post-injection, followed by tissue harvest. All animal studies were performed in accordance with approved CHORI IACUC protocols.
# S1P measurements: S1P was isolated by two-phase lipid extraction, derivatized with OPA and quantitated by HPLC essentially as described (Jiang et al, (2004) Proc Natl Acad Sci USA 101, 17825-17830; Fyrst et al., (2004) J Lipid Res 45, 54-62; Caligan et al., (2000) Anal. Biochem. 281, 36-44). All tissues were weighed prior to snap freezing in liquid nitrogen and were stored at −100° C. until processing. One nanomole of C17-S1P and PSo were added as internal standards before homogenization of tissues. Lipids were extracted with 1 ml mixture of chloroform and methanol (1:2 ratio). Samples were incubated at room temperature with sonication for 3 hours and then dried by speed vac. One ml of 0.1N NaOH in methanol was added for 1 hour at 37° C. to achieve hydrolysis. After addition of 4 ml chloroform and 4 ml 1M KCl, samples were mixed and phases separated by centrifugation. The organic phase was collected and dried for sphingosine determination. The aqueous phase was mixed with 300 μl concentrated HCl and 6 ml chloroform. The phases were separated by centrifugation, and the organic phase was collected and dried for S1P determination. All samples for S1P determination were re-dissolved in methanol. After derivation with OPA, samples were injected onto HPLC for quantification. The mobile phase was methanol:10 mM phosphate buffer (pH 7.2):1M tetrabutylammonium dihydrogen phosphate (TBAP) in water=83:16:1, v/v/v and the flow rate was 1 ml/min.
# FTY720 administration minimally affects tissue SIP levels—SK is known to be responsible for S1P synthesis, whereas SPL and S1P phosphatases are responsible for S1P catabolism. Since FTY720 interacts with both SK and SPL and may potentially influence the efficiency of both S1P synthesis and degradation, the sum effect of FTY270 administration on tissue S1P levels was determined. FTY720 treatment was associated with a slight increase in thymic tissue S1P at 36 hours, followed by a return to baseline levels by 48 hours (Table 2). […] S1P levels increased somewhat more dramatically in splenic tissue after FTY720 treatment (Table 2). […] According to non-limiting theory, simultaneous inhibition of SPL may account for the stability of tissue S1P levels in response to drug treatment.
compound,measurement,setting,value
CCCCCCCCc1ccc(CCC(N)(CO)CO)cc1 [FTY720],SPL gene expression (luciferase activity normalized to sea pansy luciferase),[1],not affected
same,SPL protein expression (immunoblotting),SPL protein expression,not affected
same,S1P (spleen),S1P; 24 hours after FTY720,15121.31 picomoles per gram of wet weight tissue
same,S1P (spleen),S1P; 36 hours after FTY720,18482.30 picomoles per gram of wet weight tissue
same,S1P (spleen),S1P; 48 hours after FTY720,12365.84 picomoles per gram of wet weight tissue
same,Dihydrosphingosine-1-P (DHS1P) tissue levels,S1P; throughout 48 hours of treatment,remained stable
same,S1P (thymus),S1P; 24 hours after FTY720,3000.69 picomoles per gram of wet weight tissue
same,S1P (thymus),S1P; 36 hours after FTY720,3917.48 picomoles per gram of wet weight tissue
same,S1P (thymus),S1P; 48 hours after FTY720,3194.45 picomoles per gram of wet weight tissue
